Where two headings read alike, the source gives them in different places.
Assays:
[1] = system: OCI-Ly10 human DLBCL cells; assay: OCI-Ly10 anti-proliferative activity (Resazurin, 72 h); format: cell-based; conditions: Homo sapiens, OCI-Ly10, 72 h, read-out: Proliferation OCI-Ly10-IC50
In short: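 Resazurin fluorescence (590 nm, 5 h dye incubation) read after 72 h compound exposure at 37 °C; NFκB-dependent cells seeded at 7.5×10^3/well in 2.5% FBS medium. Day 0 signal subtracted, values normalised to DMSO control; IC50 from log[inhibitor] vs response, variable-slope fit.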

BTK^C481S = BTK^C481S (Homo sapiens (Human), UniProt Q06187, C481S); assay: BTK^C481S binding affinity (TR-FRET, LanthaScreen); conditions: 5 h incubation
In short: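 Tracer-displacement TR-FRET: 5 nM recombinant kinase, 2 nM Eu anti-His antibody and 30 nM Kinase Tracer 236 incubated 5 h with varying inhibitor in Kinase Buffer A. Read at 340 nm excitation, 615/665 nm emission. IC50 from log[inhibitor]–response variable-slope fit.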

BTK^WT = BTK^WT (Homo sapiens (Human), UniProt Q06187); assay: BTK^WT binding affinity (TR-FRET, LanthaScreen)
In short: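 Tracer-displacement TR-FRET: 2.5 nM recombinant BTK, 2 nM Eu anti-His antibody and 15 nM Kinase Tracer 236 in Kinase Buffer A with inhibitor for 5 h. Emission read at 615/665 nm (excitation 340 nm); IC50 from variable-slope fit of log concentration vs response.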

EGFR = EGFR (Homo sapiens (Human), UniProt P00533); assay: EGFR binding affinity (TR-FRET, LanthaScreen); conditions: 5 h incubation
In short: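 IC50 derived by variable-slope fit of TR-FRET signal (ex 340, em 615 and 665 nm) against inhibitor concentration. Mix contained recombinant GST-detected EGFR at 2.5 nM, Eu anti-GST antibody at 2 nM and Kinase Tracer 199 at 3 nM in Kinase Buffer A, 5 h incubation.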

[2] = TR-FRET binding, 5 h incubation, read-out: BTK^WT IC50

Sequence of EGFR (P00533 25-1210): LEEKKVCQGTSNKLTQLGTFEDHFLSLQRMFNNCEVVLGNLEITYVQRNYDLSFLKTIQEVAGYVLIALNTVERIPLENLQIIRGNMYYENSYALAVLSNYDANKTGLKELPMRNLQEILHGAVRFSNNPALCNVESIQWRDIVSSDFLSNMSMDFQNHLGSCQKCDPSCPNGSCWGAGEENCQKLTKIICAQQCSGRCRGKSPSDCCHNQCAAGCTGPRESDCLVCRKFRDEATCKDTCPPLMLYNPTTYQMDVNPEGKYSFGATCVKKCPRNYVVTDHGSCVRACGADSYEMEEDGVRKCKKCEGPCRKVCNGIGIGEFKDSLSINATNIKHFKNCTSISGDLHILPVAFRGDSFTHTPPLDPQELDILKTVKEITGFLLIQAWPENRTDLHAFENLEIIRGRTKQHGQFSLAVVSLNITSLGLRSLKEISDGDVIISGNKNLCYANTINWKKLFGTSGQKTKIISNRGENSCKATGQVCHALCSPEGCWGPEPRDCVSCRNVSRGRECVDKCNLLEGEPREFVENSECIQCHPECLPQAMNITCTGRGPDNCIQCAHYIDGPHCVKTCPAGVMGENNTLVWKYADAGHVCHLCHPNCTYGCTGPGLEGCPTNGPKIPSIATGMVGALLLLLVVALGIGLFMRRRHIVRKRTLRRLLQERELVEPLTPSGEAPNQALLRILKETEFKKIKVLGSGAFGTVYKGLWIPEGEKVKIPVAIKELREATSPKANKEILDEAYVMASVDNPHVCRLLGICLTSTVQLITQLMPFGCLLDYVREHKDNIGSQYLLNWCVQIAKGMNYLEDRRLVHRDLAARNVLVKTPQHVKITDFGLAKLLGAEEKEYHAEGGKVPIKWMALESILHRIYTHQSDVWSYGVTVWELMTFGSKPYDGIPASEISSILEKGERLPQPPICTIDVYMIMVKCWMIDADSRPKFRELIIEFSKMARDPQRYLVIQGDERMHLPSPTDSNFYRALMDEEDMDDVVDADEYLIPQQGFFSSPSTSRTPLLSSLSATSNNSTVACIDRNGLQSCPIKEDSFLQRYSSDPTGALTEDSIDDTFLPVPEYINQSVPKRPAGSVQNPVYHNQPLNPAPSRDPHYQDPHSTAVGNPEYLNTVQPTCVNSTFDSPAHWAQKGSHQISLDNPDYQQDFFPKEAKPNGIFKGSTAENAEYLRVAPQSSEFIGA
Sequence of BTK^WT (Q06187 whole entry): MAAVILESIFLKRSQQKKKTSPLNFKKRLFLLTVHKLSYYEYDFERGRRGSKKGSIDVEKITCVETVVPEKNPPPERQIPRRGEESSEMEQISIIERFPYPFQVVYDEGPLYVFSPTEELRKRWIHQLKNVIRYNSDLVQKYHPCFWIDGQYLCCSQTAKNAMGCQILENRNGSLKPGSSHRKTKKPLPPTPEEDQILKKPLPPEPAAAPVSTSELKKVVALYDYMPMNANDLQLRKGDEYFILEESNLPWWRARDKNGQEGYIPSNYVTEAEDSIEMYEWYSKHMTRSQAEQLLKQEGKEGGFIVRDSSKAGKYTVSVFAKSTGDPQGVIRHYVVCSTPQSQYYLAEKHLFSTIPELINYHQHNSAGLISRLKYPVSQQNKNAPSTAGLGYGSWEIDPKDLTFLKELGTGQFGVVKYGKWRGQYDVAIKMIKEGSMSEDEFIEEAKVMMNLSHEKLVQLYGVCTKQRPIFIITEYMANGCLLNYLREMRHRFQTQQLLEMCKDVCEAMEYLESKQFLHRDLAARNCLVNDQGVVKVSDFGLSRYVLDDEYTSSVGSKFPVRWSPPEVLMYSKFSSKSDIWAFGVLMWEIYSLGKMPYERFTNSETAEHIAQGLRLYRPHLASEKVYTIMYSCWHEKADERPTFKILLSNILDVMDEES
Sequence of BTK^C481S (Q06187 whole entry C481S): as the sequence (Q06187 whole entry) above, with C481S counted along it

SMILES | IC50 [1] [nM] | IC50 (BTK^C481S) [nM] | IC50 (BTK^WT; [2]) [nM] | IC50 (EGFR) [nM] | IC50 (BTK^WT; Table 6, numeric values, read-out: BTK Binding IC50) [nM]
COc1ccc(F)cc1C(=O)NCc1ccc(-c2nn(C3CCCC3)c3ncnc(N)c23)cc1F [Example 63, N-[[4-(4-Amino-1-cyclopentyl-pyrazolo[3,4-d]pyrimidin-3-yl)-2-fluoro-phenyl]methyl]-5-fluoro-2-methoxy-benzamide] | 10 to 100 | ≤ 10 | ≤ 10 | 1000 to 10000 | 
COc1ccc(C)cc1C(=O)NCc1ccc(-c2nn(C3CCCC3)c3ncnc(N)c23)cc1F [Example 65, N-[[4-(4-amino-1-cyclopentyl-pyrazolo[3,4-d]pyrimidin-3-yl)-2-fluoro-phenyl]methyl]-2-methoxy-5-methyl-benzamide] | 100 to 1000 | ≤ 10 | ≤ 10 | 1000 to 10000 | 
COc1ccccc1C(=O)NCc1ccc(-c2nn(C3CCCC3)c3ncnc(N)c23)cc1F [Example 66, N-[[4-(4-amino-1-cyclopentyl-pyrazolo[3,4-d]pyrimidin-3-yl)-2-fluoro-phenyl]methyl]-2-methoxy-benzamide] | 10 to 100 | ≤ 10 | ≤ 10 | 100 to 1000 | 4
COc1ccc2ccccc2c1C(=O)NCc1ccc(-c2nn(C3CCCC3)c3ncnc(N)c23)cc1 [Example 68, N-[[4-(4-amino-1-cyclopentyl-pyrazolo[3,4-d]pyrimidin-3-yl)phenyl]methyl]-2-methoxy-naphthalene-1-carboxamide] | 1000 to 10000 | 100 to 1000 | 100 to 1000 | 1000 to 10000 | 
COc1ccccc1C(=O)NCc1ccc(-c2nn(C3CCCC3)c3ncnc(N)c23)c(OC)c1 [Example 77, N-[[4-(4-Amino-1-cyclopentyl-pyrazolo[3,4-d]pyrimidin-3-yl)-3-methoxy-phenyl]methyl]-2-methoxy-benzamide] | 10 to 100 | ≤ 10 | ≤ 10 | > 10000 | 
COc1ccc(F)cc1C(=O)NCc1ccc(-c2nn(CC(F)(F)F)c3ncnc(N)c23)cc1 [Example 93, N-[[4-[4-Amino-1-(2,2,2-trifluoroethyl)pyrazolo[3,4-d]pyrimidin-3-yl]phenyl]methyl]-5-fluoro-2-methoxy-benzamide] | 100 to 1000 | ≤ 10 | ≤ 10 | > 10000 | 

Other lines, results leading:

IC50 [1] [nM] | IC50 (BTK^C481S) [nM] | IC50 (BTK^WT; [2]) [nM] | IC50 (EGFR) [nM] | IC50 (BTK^WT; Table 6, numeric values, read-out: BTK Binding IC50) [nM] | SMILES
100 to 1000 | ≤ 10 | ≤ 10 | 1000 to 10000 |  | COc1ccccc1C(=O)NCc1ccc(-c2nn([C@H]3C=C[C@H](n4ccnn4)C3)c3ncnc(N)c23)cc1 [Example 61, N-[[4-[4-amino-1-[(1R,4R)-4-(triazol-1-yl)cyclopent-2-en-1-yl]pyrazolo[3,4-d]pyrimidin-3-yl]phenyl]methyl]-2-methoxy-benzamide]
10 to 100 | ≤ 10 | ≤ 10 | 100 to 1000 |  | COc1ccccc1C(=O)NCc1ccc(-c2nn(C3CCC(C)C3)c3ncnc(N)c23)cc1 (stereo not drawn) [Example 62, N-[[4-[4-amino-1-(3-methylcyclopentyl)pyrazolo[3,4-d]pyrimidin-3-yl]phenyl]methyl]-2-methoxy-benzamide]
1000 to 10000 | 100 to 1000 | 100 to 1000 | 1000 to 10000 |  | Nc1ncnc2c1c(-c1ccc(CNC(=O)c3nccc4ccccc34)cc1)nn2C1CCCC1 [Example 69, N-[[4-(4-amino-1-cyclopentyl-pyrazolo[3,4-d]pyrimidin-3-yl)phenyl]methyl]isoquinoline-1-carboxamide]
100 to 1000 | ≤ 10 | ≤ 10 | 100 to 1000 |  | Nc1ncnc2c1c(-c1ccc(CNC(=O)c3cccc4cccnc34)cc1)nn2C1CCCC1 [Example 70, N-[[4-(4-amino-1-cyclopentyl-pyrazolo[3,4-d]pyrimidin-3-yl)phenyl]methyl]quinoline-8-carboxamide]
100 to 1000 | 10 to 100 | 10 to 100 | 1000 to 10000 |  | COc1ccccc1C(=O)NCc1ccc(-c2nn(CC(C)O)c3ncnc(N)c23)cc1 (stereo not drawn) [Example 74, N-[[4-[4-amino-1-(2-hydroxypropyl)pyrazolo[3,4-d]pyrimidin-3-yl]phenyl]methyl]-2-methoxy-benzamide]
100 to 1000 | ≤ 10 | ≤ 10 | 100 to 1000 |  | COc1ccccc1C(=O)NCc1ccc(-c2nn(CC(C)C)c3ncnc(N)c23)cc1 [Example 76, N-[[4-(4-amino-1-isobutyl-pyrazolo[3,4-d]pyrimidin-3-yl)phenyl]methyl]-2-methoxy-benzamide]
100 to 1000 | ≤ 10 | ≤ 10 | 100 to 1000 |  | COc1ccccc1C(=O)NCc1ccc(-c2nn(C3CCCC3)c3ncnc(N)c23)cc1C [Example 89, N-[[4-(4-Amino-1-cyclopentyl-pyrazolo[3,4-d]pyrimidin-3-yl)-2-methyl-phenyl]methyl]-2-methoxy-benzamide]
1000 to 10000 | 10 to 100 | 10 to 100 | > 10000 |  | COc1ccccc1C(=O)NCc1ccc(-c2nn(CC(F)(F)F)c3ncnc(N)c23)cc1 [Example 90, N-[[4-[4-Amino-1-(2,2,2-trifluoroethyl)pyrazolo[3,4-d]pyrimidin-3-yl]phenyl]methyl]-2-methoxy-benzamide]

Source: US10399989B2, “Pyrazolopyrimidine derivatives as BTK inhibitors for the treatment of cancer” (Loxo Oncology, Inc., priority 2016, dated 2019)
